These results are taken from article PMC4667271, “Discovery of a Novel Inhibitor of the Protein Tyrosine Phosphatase Shp2” (Scientific Reports, 2015).

Bounds are passed on as bounds.

The test system of assay [1] is ERK1/2 phosphorylation in MDA-MB-231 cells. Put plainly: EGF-induced ERK1/2 activation, Western blot, MDA-MB-231. The assay is classed as cell-based, human. The conditions noted are these: MDA-MB-231 (K-Ras G13D); 10-40 μM for 24 h, EGF 20 ng/ml 5 min. An excerpt:
After centrifugation, the supernatant was collected.
For orientation: A western blot detects proteins with antibodies after separation by electrophoresis.

Assay [2] concerns the target SHP1 (Homo sapiens, UniProt P29350). Nature of the assay: in vitro PTP assay (pNPP), SHP1. It is filed as biochemical. The method, then:
(§1) Plasmids for expression of His-tag fusion proteins of human PTP were constructed in PET-28a by PCR subcloning techniques. The constructions contain only the PTP domain except Full-length Shp2. Full-length Shp2 containing Tyr279-to-Ala mutant was generated by PCR-based mutagenesis. All constructs were verified by DNA sequencing. PTP-His fusion proteins were expressed in Escherichia coli BL21 and lysed in the buffer (50 mM NaH2PO4, 300 mM NaCl, 250 mM imidazole, 1 mM dithiothreitol plus 5% glycerol), purified with Ni-NTA Magnetic Agarose Beads (Qiagen). The His-tag recombinant purification protocol was carried out according to the purification under native conditions of the QIAexpress System.
(§2) The assay was set in wells of 96-well plate with a final volume of 100 μl of reaction mixture containing 10 mM of NaAc-HAc, 1 mM of ethylene diamine tetraacetic acid, 1 mM of DL-dithiothreitol and 2% of dimethyl sulfoxide, pH 5.5. Activity of the enzyme was assayed by incubating recombinant PTP protein or mutant PTP with various concentrations of Fumos in the mixture at 37 °C for 30 min. Absorbance at 405 nm was detected immediately after addition of varied concentrations of substrate, p-nitrophenyl phosphate (pNPP) to each corresponding well.

Assay [3] concerns the target HePTP (Homo sapiens, UniProt P35236). Put plainly: in vitro PTP assay (pNPP), HePTP. The assay is classed as biochemical. The method, then:
as §1, §2

For assay [4], the system named is EGF-induced Ras activation in HEK293T cells. Nature of the assay: Ras activation assay (GST-RBD pull-down), HEK293T. The assay is classed as cell-based, human. Particulars: Fumos 20 μM. The method, then:
Active Ras was detected by use of the RBD of raf-1 fused to glutathione S-transferase (GST) as described previously. Cells were lysed in MLB buffer (25 mM Hepes, 150 mM NaCl, 1% Nonidet P-40, 0.25% sodium deoxycholate, 10% glycerol, 25 mM NaF, 1 mM Na3VO4, 10 mM MgCl2, 1 mM EDTA, pH 7.5) supplemented with complete EDTA-free protease inhibitor mixture. Total 500 μg cell lysate was incubated with 10–20 μg of GST-RBD bound beads(Merck) overnight at 4 °C. The beads were pelleted by centrifugation and washed three times with MLB buffer. The beads were boiled in SDS loading buffer and subjected to electrophoresis, followed by immunoblotting with an anti-Ras antibody (Santa Cruz Biotechnology).

Assay [5] deals with Gab1-Shp2 association in MDA-MB-231 cells. Put plainly: Gab1-Shp2 co-immunoprecipitation, MDA-MB-231. The assay is classed as cell-based, human. Particulars: Fumos alone. On the procedure: Cells were washed with cold PBS twice and lysed in cell lysis buffer for 10 min on ice. Then the lytic cells were centrifugated with 13,000 g for 10 min at 4 °C. The supernatant was transferred to a fresh conical centrifuge tube on ice and added 1 μg of the appropriate control IgG, together with 20 μl of resuspended volume of Protein A/G PLUS-Agarose (Santa Cruz Biotechnology, CA), then incubated at 4 °C for 30 min. The pellet beads were centrifugated at 1,000 g for 5 min at 4 °C. The supernatant with approximately 100–500 μg total cellular protein was incubated with 2 μg primary antibody against Shp2 or Gab1 for 7 h at 4 °C. Then lysates containing protein-antibody complexes were incubated with 20 μl of Protein A/G PLUS-Agarose at 4 °C on a rotating device overnight. Immunoprecipitates were collected by centrifugation at 2,500 rpm and washed for 4 times with 1 ml lysis buffer, then suspended in the loading buffer, boiled, and analyzed by SDS-PAGE.
Figure S1. Fumos inhibits Gab1-Shp2 association in MDA-MB-231 cells.
MDA-MB-231 cells were serum-starved for 18 h, preincubated with or without Fumos (20 μM 24 h), and then treated with EGF (20 ng/ml, 5 min). Shp2 was immunoprecipitated from cell lysate supernatants. Immunoprecipitates were analyzed by immunoblotting with antibodies to Gab1, pY and Shp2.
(1 picture or pasted object on this page, not shown here)

Assay [6] concerns the target T1, Shp2 (Homo sapiens, UniProt Q06124).
T1 sequence (Q06124 1-593): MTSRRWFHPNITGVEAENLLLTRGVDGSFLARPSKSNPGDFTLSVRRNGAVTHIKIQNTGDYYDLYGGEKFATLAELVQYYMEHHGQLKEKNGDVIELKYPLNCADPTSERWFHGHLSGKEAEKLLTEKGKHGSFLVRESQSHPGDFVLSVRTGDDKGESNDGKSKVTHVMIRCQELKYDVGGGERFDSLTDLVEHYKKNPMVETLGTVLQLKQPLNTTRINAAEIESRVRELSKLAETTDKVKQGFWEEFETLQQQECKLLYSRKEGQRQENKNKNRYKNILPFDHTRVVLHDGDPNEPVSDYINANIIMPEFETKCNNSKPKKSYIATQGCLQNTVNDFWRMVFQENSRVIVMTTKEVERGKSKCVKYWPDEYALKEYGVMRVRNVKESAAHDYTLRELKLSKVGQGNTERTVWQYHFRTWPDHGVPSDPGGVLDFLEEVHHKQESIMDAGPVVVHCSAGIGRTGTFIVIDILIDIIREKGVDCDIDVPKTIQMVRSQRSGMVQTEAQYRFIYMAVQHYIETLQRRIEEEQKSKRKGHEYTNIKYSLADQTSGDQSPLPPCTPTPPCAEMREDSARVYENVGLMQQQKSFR
Put plainly: Irreversibility assessment (dilution and excess substrate). The assay is classed as biochemical. Particulars: preincubated 30 min, then 40-fold substrate. On the procedure:
Recombinant Shp2 was mixed with the inhibitor at a final concentration of 100-fold IC50 or with vehicle control (DMSO) respectively. Sodium orthovanadate was used as a positive control compound. After incubation at room temperature for 30 min, the Enzyme-inhibitor was diluted to one-fold and mixed with 40-fold pNPP ([…]) for enzymatic activity.

The target of assay [7] is T2, Shp2-WT (Homo sapiens, UniProt Q06124).
T2 sequence (Q06124 1-593): T1 sequence (Q06124 1-593)
Nature of the assay: Surface plasmon resonance analysis, Shp2-WT. The assay is classed as binding. Particulars: SPR, Fumos immobilized, Shp2-WT injected. On the procedure:
One small molecule (10 mM) was spotted on the 3D sensor chip. Positive and negative controls on the chip were monitored for binding kinetics to verify immobilization. All experiments were performed using Plexera’s Plex Array SPRi instrumentation, visualized using Instrument Control software (ICS) and analyzed using Plexera Data Explorer software.
Proteins were injected in the following order: Shp2 full-length protein (12 nM, 36 nM, 108 nM, 324 nM), Shp2 Y279A protein (35 nM, 70 nM,140 nM, 280 nM, 560 nM). Each protein was injected at a flow rate of 1 μl/sec. The association duration was 200 sec and dissociation duration was 300 sec. Regeneration between injections was performed with 600 μl of 10 mM glycine-HCl, pH = 2.0. The data were analyzed by Plexera Data Explorer software.
For orientation: In SPR one partner is held on a chip, and binding of the other changes the refractive index at the surface.

Chain of SHP1 (P29350 244-515 limits assumed): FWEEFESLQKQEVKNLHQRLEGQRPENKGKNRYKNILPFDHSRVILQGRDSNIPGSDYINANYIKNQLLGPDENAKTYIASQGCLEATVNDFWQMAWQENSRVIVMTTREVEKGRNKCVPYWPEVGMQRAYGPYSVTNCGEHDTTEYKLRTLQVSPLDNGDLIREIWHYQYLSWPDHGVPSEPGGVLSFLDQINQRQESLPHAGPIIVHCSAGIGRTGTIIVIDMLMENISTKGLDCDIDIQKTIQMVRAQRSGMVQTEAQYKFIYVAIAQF
Chain of HePTP (P35236 97-350 limits assumed): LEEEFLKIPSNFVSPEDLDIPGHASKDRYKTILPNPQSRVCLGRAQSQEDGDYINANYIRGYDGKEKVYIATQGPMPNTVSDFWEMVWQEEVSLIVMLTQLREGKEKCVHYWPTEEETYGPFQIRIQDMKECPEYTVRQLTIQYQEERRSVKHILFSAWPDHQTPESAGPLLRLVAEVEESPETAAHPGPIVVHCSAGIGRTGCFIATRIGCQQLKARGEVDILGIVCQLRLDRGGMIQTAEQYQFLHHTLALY

For the compound `CC[C@@H](C)C[C@@H](C)/C=C(C)/C=C/C=C/C=C(\C)C(=O)c1c(O)c(-c2ccc(O)cc2)cn(O)c1=O` [Fumos, Fumosorinone], the “EGF-induced ERK1/2 phosphorylation” value in assay [1] is “the decrease was not observed”. Moreover, in assay [2] (SHP1 PTP domain), it took 34.7 ± 0.37 µM to reach half-maximal inhibition (IC50). Moreover, the IC50 selective in assay [2] (SHP1 relative to Shp2 PTP domain) is approximately 6. Moreover, the IC50 (usually the concentration that gives 50% inhibition) in assay [3] (HePTP PTP domain) was more than 100 µM. In assay [3] (HePTP relative to Shp2 PTP domain), the IC50 selective is recorded as more than 16. In addition, the “EGF-induced endogenous Ras activation” value in assay [4] is “inhibited”. Further, in assay [5], the “Gab1-Shp2 association without EGF” value is given as “induces Gab1-Shp2 association”. Moreover, the “recovery of Shp2 enzyme activity after dilution and excess substrate (reversibility)” value in assay [6] was “recovered”. In addition, in assay [7], the “Ka (association rate)” value is recorded as 7.06 × 10^5 M^−1 S^−1; the Kd (as a rule, the free concentration of one partner at which half of the binding sites on the other are occupied at equilibrium, for simple one-to-one binding) was 0.04 µM; the “Kd (dissociation rate)” value is recorded as 2.85 × 10^−2 S^−1.
